Where a name gives a salt, the structure may show the parent alone.
The molecules below were run on Endogenous Huntingtin Protein (HTT) (assay: Endogenous Huntingtin Protein Assay (ELISA-based MSD electrochemiluminescence)). Settings: Table 1.
Type: cell-based
How it was run: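 HTT protein in lysates was measured by electrochemiluminescence on the MSD platform. Rabbit monoclonal 5656S followed by SULFO-TAG anti-rabbit antibody served for detection after overnight 4 °C capture with MAB2166 or the polyglutamine-directed MW1 antibody.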

SMILES	IC50
Cc1cc(-c2cc(=O)n3cc(N4CCNCC4)ccc3n2)cc2cnn(C)c12 [compound 776, 2-(1,7-dimethyl-1H-indazol-5-yl)-7-(piperazin-1-yl)-4H-pyrido[1,2-a]pyrimidin-4-one]	3000 to 33000 nM
Cc1cc(-c2cc(=O)n3cc(N4CCN[C@@H](C)C4)ccc3n2)cc2cnn(C)c12 [compound 777, 2-(1,7-dimethyl-1H-indazol-5-yl)-7-[(3S)-3-methylpiperazin-1-yl]-4H-pyrido[1,2-a]pyrimidin-4-one]	3000 to 33000 nM
Cc1cn2nc(-c3cc(=O)n4cc(N5CC(CN(C)C)C5)ccc4n3)cc2c(C)n1 [compound 780, 7-{3-[(dimethylamino)methyl]azetidin-1-yl}-2-(4,6-dimethylpyrazolo[1,5-a]pyrazin-2-yl)-4H-pyrido[1,2-a]pyrimidin-4-one]	1000 to 3000 nM
CCc1nc(C)cn2nc(-c3cc(=O)n4cc(N5CCN[C@@H](C)C5)cc(C)c4n3)cc12 [compound 787, 2-(4-ethyl-6-methylpyrazolo[1,5-a]pyrazin-2-yl)-9-methyl-7-[(3S)-3-methylpiperazin-1-yl]-4H-pyrido[1,2-a]pyrimidin-4-one]	3000 to 33000 nM
Cc1nc(C2=CCNCC2)cn2c(=O)cc(-c3ccc4nn(C)cc4c3)nc12 [compound 791, 9-methyl-2-(2-methyl-2H-indazol-5-yl)-7-(1,2,3,6-tetrahydropyridin-4-yl)-4H-pyrazino[1,2-a]pyrimidin-4-one]	< 100 nM
CCc1nc(C)cn2nc(-c3cc(=O)n4cc(C5CCN(CCO)CC5)cc(C)c4n3)cc12 [compound 793, 2-(4-ethyl-6-methylpyrazolo[1,5-a]pyrazin-2-yl)-7-[1-(2-hydroxyethyl)piperidin-4-yl]-9-methyl-4H-pyrido[1,2-a]pyrimidin-4-one]	1000 to 3000 nM
Cc1nc(C2CCNCC2)cn2c(=O)cc(-c3ccc4nn(C)cc4c3)nc12 [compound 796, 9-methyl-2-(2-methyl-2H-indazol-5-yl)-7-(piperidin-4-yl)-4H-pyrazino[1,2-a]pyrimidin-4-one]	< 100 nM
Cc1ccc2nc(-c3cc(=O)n4cc(N5CCN(C)CC5)ccc4n3)cn2c1 [compound 836, 2-(6-methylimidazo[1,2-a]pyridin-2-yl)-7-(4-methylpiperazin-1-yl)-4H-pyrido[1,2-a]pyrimidin-4-one]	3000 to 33000 nM
Cc1cc(=O)n2cc(-c3cc(=O)n4cc(N5CCNCC5)ccc4n3)ccc2n1 [compound 837, 2′-methyl-7-(piperazin-1-yl)-4H,4′H-2,7′-bipyrido[1,2-a]pyrimidine-4,4′-dione]	3000 to 33000 nM
O=c1cc(-c2ccc(OC(F)F)c(F)c2)nc2ccc(N3CCNCC3)cn12 [compound 838, 2-[4-(difluoromethoxy)-3-fluorophenyl]-7-(piperazin-1-yl)-4H-pyrido[1,2-a]pyrimidin-4-one]	3000 to 33000 nM
O=c1cc(-c2cnc(O)c(F)c2)nc2ccc(N3CCNCC3)cn12 [compound 839, 2-(5-fluoro-6-hydroxypyridin-3-yl)-7-(piperazin-1-yl)-4H-pyrido[1,2-a]pyrimidin-4-one]	3000 to 33000 nM
Cc1nc(O)c2cc(-c3cc(=O)n4cc(N5CCNCC5)ccc4n3)ccc2n1 [compound 840, 2-(4-hydroxy-2-methylquinazolin-6-yl)-7-(piperazin-1-yl)-4H-pyrido[1,2-a]pyrimidin-4-one]	3000 to 33000 nM
CN1CCC(c2ccc3nc(-c4ccc(N(C)C)nc4)cc(=O)n3c2)CC1 [compound 841, 2-[6-(dimethylamino)pyridin-3-yl]-7-(1-methylpiperidin-4-yl)-4H-pyrido[1,2-a]pyrimidin-4-one]	3000 to 33000 nM
CCN1CC=C(c2cn3c(=O)cc(-c4ccc5nc(C)cn5n4)nc3cn2)CC1 [compound 842, 7-(1-ethyl-1,2,3,6-tetrahydropyridin-4-yl)-2-(2-methylimidazo[1,2-b]pyridazin-6-yl)-4H-pyrazino[1,2-a]pyrimidin-4-one]	3000 to 33000 nM
Cc1cn2nc(-c3cc(=O)n4cc(N5CCN(C)CC5)ccc4n3)cc2c(N(C)C)n1 [compound 843, 2-[4-(dimethylamino)-6-methylpyrazolo[1,5-a]pyrazin-2-yl]-7-(4-methylpiperazin-1-yl)-4H-pyrido[1,2-a]pyrimidin-4-one]	3000 to 33000 nM
Cc1cn2nc(-c3cc(=O)n4cc(N5CCNC(C(F)(F)F)C5)ccc4n3)cc2c(C)n1 (stereo not shown) [compound 844, 2-(4,6-dimethylpyrazolo[1,5-a]pyrazin-2-yl)-7-[3-(trifluoromethyl)piperazin-1-yl]-4H-pyrido[1,2-a]pyrimidin-4-one]	3000 to 33000 nM
CCN1CCN(c2ccc3nc(-c4cc(C)c5c(cnn5C)c4)cc(=O)n3c2)CC1 [compound 845, 2-(1,7-dimethyl-1H-indazol-5-yl)-7-(4-ethylpiperazin-1-yl)-4H-pyrido[1,2-a]pyrimidin-4-one]	3000 to 33000 nM
Cc1cc(-c2cc(=O)n3cc(N4CCN(C)CC4)ccc3n2)cc2cnn(C)c12 [compound 846, 2-(1,7-dimethyl-1H-indazol-5-yl)-7-(4-methylpiperazin-1-yl)-4H-pyrido[1,2-a]pyrimidin-4-one]	3000 to 33000 nM
COc1cc(O)ccc1-c1cc(=O)n2cc(C3=CCN(C(=O)OC(C)(C)C)CC3)ccc2n1 [compound 847, tert-butyl 4-[2-(4-hydroxy-2-methoxyphenyl)-4-oxo-4H-pyrido[1,2-a]pyrimidin-7-yl]-3,6-dihydropyridine-1(2H)-carboxylate]	3000 to 33000 nM
COc1cc(OS(=O)(=O)C(F)(F)F)ccc1-c1cc(=O)n2cc(C3=CCN(C(=O)OC(C)(C)C)CC3)ccc2n1 [compound 848, tert-butyl 4-[2-(2-methoxy-4-{[(trifluoromethyl)sulfonyl]oxy}phenyl)-4-oxo-4H-pyrido[1,2-a]pyrimidin-7-yl]-3,6-dihydropyridine-1(2H)-carboxylate]	3000 to 33000 nM
COc1cc(-c2ccnc(O)c2)ccc1-c1cc(=O)n2cc(C3=CCNCC3)ccc2n1 [compound 849, 2-[4-(2-hydroxypyridin-4-yl)-2-methoxyphenyl]-7-(1,2,3,6-tetrahydropyridin-4-yl)-4H-pyrido[1,2-a]pyrimidin-4-one hydrochloride (1:1)]	3000 to 33000 nM
O=c1cc(-c2ccc(-c3ccnc(O)c3)cc2O)nc2ccc(C3=CCNCC3)cn12 [compound 850, 2-[2-hydroxy-4-(2-hydroxypyridin-4-yl)phenyl]-7-(1,2,3,6-tetrahydropyridin-4-yl)-4H-pyrido[1,2-a]pyrimidin-4-one trifluoroacetate (1:1)]	3000 to 33000 nM
CCc1nc(C)cn2nc(-c3cc(=O)n4cc(N(C)C5CC(C)(C)NC(C)(C)C5)cc(C)c4n3)cc12 [compound 851, 2-(4-ethyl-6-methylpyrazolo[1,5-a]pyrazin-2-yl)-9-methyl-7-[methyl(2,2,6,6-tetramethylpiperidin-4-yl)amino]-4H-pyrido[1,2-a]pyrimidin-4-one]	3000 to 33000 nM
Cc1cn2nc(-c3cc(=O)n4cc(N(C)C5CC(C)(C)NC(C)(C)C5)cc(C)c4n3)cc2c(C)n1 [compound 852, 2-(4,6-dimethylpyrazolo[1,5-a]pyrazin-2-yl)-9-methyl-7-[methyl(2,2,6,6-tetramethylpiperidin-4-yl)amino]-4H-pyrido[1,2-a]pyrimidin-4-one]	3000 to 33000 nM
Cc1cc(N(C)C2CC(C)(C)NC(C)(C)C2)cn2c(=O)cc(-c3ccc4nn(C)cc4c3)nc12 [compound 853, 9-methyl-2-(2-methyl-2H-indazol-5-yl)-7-[methyl(2,2,6,6-tetramethylpiperidin-4-yl)amino]-4H-pyrido[1,2-a]pyrimidin-4-one]	3000 to 33000 nM
